Entries after “also recorded” stand apart in the source; their conditions may differ. Structures can show the parent of a compound that is named as a salt.
Experiments:
[1] = system: MSRV-Env induced EAE in C57BL/6 mice; test: EAE clinical score, Example 3.C (GNbAC1 and Sodium Fumarate); type: in vivo; details: from day 12: GNbAC1 500 μg IP; Sodium Fumarate 10 mg daily in 3.5 ml drinking water; versus isotype control antibody
Description: (§1) Animals were weighed and clinically scored 5 days per week according to the following criteria: 0=no signs; 1=tail paralysis or hyper-reflex of hind limb(s) or unilateral hind limb weakness; 2=bilateral hind limb or forelimb weakness; 3=plus unilateral paralysis or major deficit; 4=complete hind limb or forelimb paralysis; 5=plus partial paralysis or major deficit of opposite limbs; 6=moribund or dead. These were adapted from standard criteria, in order to reflect the more rapid induction of brain and cervical cord lesions with this model.

rat OPCs [2] = test: iNOS expression in cultured rat OPCs stimulated with recombinant Env (quantitative RT-PCR); type: cell-based; details: 2 h pre-incubation (IRAK1/4 inhibitor I 3200 nM; TRIF inhibitory peptide 50 μM; anti-TLR4 antibody 15 μg/ml), then solid recombinant Env 8 h, GAPDH reference
Experimental: Rat oligodendrocyte Precursor Cells (OPCs) were purified as previously described^22. OPCs were either kept in proliferation medium (Sato medium supplemented with 10 ng/ml recombinant human basic fibroblast growth factor and 10 ng/ml recombinant human platelet-derived growth factor-AA; R&D Systems, Wiesbaden-Nordenstadt, Germany), whereas differentiation was initiated by Sato medium supplemented with 0.5% fetal calf serum. Human fetal oligodendrocyte precursor cells (hOPC) and respective media were purchased from 3H Biomedical, Uppsala, Sweden. […] Endotoxin levels were <5 EU/mL as measured by the limulus amebocyte lysate (LAL) test. […] NO concentration measurements in OPC supernatants were performed using a colorimetric nitric oxide assay kit (Merck-Millipore/Calbiochem, Darmstadt, Germany) and the absorbance was determined at 540 nm using an Anthos plate reader 2001 (Anthos labtec instruments, Salzburg, Austria). […]
Transcription Polymerase Chain Reaction RNA purification from cultured cells was performed using the RNeasy procedure (Qiagen, Hilden, Germany). […] Quantitative determination of gene expression levels was performed on a 7900HT sequence detection system (Life Technologies/Applied Biosystems) using Power SybrGreen universal master mix (Life Technologies/Applied Biosystems). […]

rat OPCs [3] = test: Myelin protein (CNPase, MBP) expression of Env stimulated rat OPCs (immunostaining); type: cell-based; details: 100 μM in combination with surface bound recombinant Env for three days
Experimental: (§2) Rat oligodendrocyte Precursor Cells (OPCs) were purified as previously described^22. OPCs were either kept in proliferation medium (Sato medium supplemented with 10 ng/ml recombinant human basic fibroblast growth factor and 10 ng/ml recombinant human platelet-derived growth factor-AA; R&D Systems, Wiesbaden-Nordenstadt, Germany), whereas differentiation was initiated by Sato medium supplemented with 0.5% fetal calf serum. Human fetal oligodendrocyte precursor cells (hOPC) and respective media were purchased from 3H Biomedical, Uppsala, Sweden. Recombinant Env was produced and purified by PX-Therapeutics (Grenoble, France) according to QC specifications of GeNeuro (Geneva, Switzerland) that supplied the protein batches. Endotoxin levels were <5 EU/mL as measured by the limulus amebocyte lysate (LAL) test. […] NO concentration measurements in OPC supernatants were performed using a colorimetric nitric oxide assay kit (Merck-Millipore/Calbiochem, Darmstadt, Germany) and the absorbance was determined at 540 nm using an Anthos plate reader 2001 (Anthos labtec instruments, Salzburg, Austria). […]

rat OPCs [4] = test: 3-nitrotyrosine (3-NT) positive rat OPCs after Env stimulation (immunostaining); type: cell-based; details: for Env dependent formation of 3-NT positive OPCs after pre-incubation: 100 μM for 30 min at 37° C. prior to Env stimulation
Experimental: Rat oligodendrocyte Precursor Cells (OPCs) were purified as previously described^22. OPCs were either kept in proliferation medium (Sato medium supplemented with 10 ng/ml recombinant human basic fibroblast growth factor and 10 ng/ml recombinant human platelet-derived growth factor-AA; R&D Systems, Wiesbaden-Nordenstadt, Germany), whereas differentiation was initiated by Sato medium supplemented with 0.5% fetal calf serum. Human fetal oligodendrocyte precursor cells (hOPC) and respective media were purchased from 3H Biomedical, Uppsala, Sweden. Recombinant Env was produced and purified by PX-Therapeutics (Grenoble, France) according to QC specifications of GeNeuro (Geneva, Switzerland) that supplied the protein batches. Endotoxin levels were <5 EU/mL as measured by the limulus amebocyte lysate (LAL) test. Env stimulation was carried out using three different approaches using i) recombinant full length Env protein diluted in differentiation medium at 10 ng/ml, 100 ng/ml and 1000 ng/ml, ii) recombinant Env protein coated on cell culture dishes at a surface concentration of 17.53 ng/cm^2 and iii) by seeding OPCs on transfected U343 glioblastoma cells overexpressing Env, respectively. Control stimulation experiments were conducted using the recombinant Env buffer preparation (20 mM histidine, 5% (w/v) sucrose, 0.01% (w/v) polysorbate 20, pH 6.0) at equal dilutions. NO concentration measurements in OPC supernatants were performed using a colorimetric nitric oxide assay kit (Merck-Millipore/Calbiochem, Darmstadt, Germany) and the absorbance was determined at 540 nm using an Anthos plate reader 2001 (Anthos labtec instruments, Salzburg, Austria). OPC morphology assessment was carried out using an anti-04 antibody Merck-Millipore/Chemicon, Darmstadt, Germany) taking into account cell diameter and the degree of process branching. […]

[5] = system: MSRV-Env induced EAE in C57BL/6 mice; test: EAE clinical score, Example 3.A (EAE induced with MOG and MSRV-Env); type: in vivo; details: treatment from day 12 to day 29: GNbAc1 200 μg once, L-NAME 600 μg IP and SMT 1 mg IP every 4 days, DMF 1 mg daily in drinking water
Description: Pathogen free female C57BL/6 nice (6-8 weeks old) were purchased from the Charles River laboratories and maintained at the animal facilities for one week before immunization. One day before immunization, all mice have been weighed, and then evaluated on the Rotarod Test. Rotarod:
as §1
(§3) All groups of 6 (six) mice have been first injected s.c. in the neck on day 0 then in the dorsal flanks on day 7 and 14; with 200 μg of MOG/mouse+60 μg of MSRV-Env+IFA.
(§4) For Groups G to H, the treatments with GNbAc1, L-NAME, SMT and DMF alone or together with GNbAc1 with the doses indicated below, have been initiated on day 12 post immunization when the progression of EAE clinical symptoms was already observed. GNbAc1 humanized antibody was administered once, but L-Name or SMT was administered every 4 days until termination of the study on day 29. Regarding Groups E and H, attributed for the treatment with DMF, we have previously determined the volume of daily water consumption by each mouse and it has been determined that (in our condition), each mouse consumed around 3.5 ml drinking water per day. Thus, on the basis of this measurement, a dose of 1 mg DMF+0.08% Methocel per mouse were added to 3.5 ml drinking water daily.
350 ng of pertussis toxin (PTX) per animal was injected (i.p.) in all groups on the same day following each immunogen injection, and replicated 2 days later, as usual in EAE protocols in order to facilitate the migration lymphocytes through the blood-brain barrier.

rat OPCs [6] = test: NO concentration in OPC supernatants (colorimetric nitric oxide assay); type: cell-based; details: Env stimulated OPCs; data not shown
Experimental: as §2

[7] = system: MSRV-Env induced EAE in C57BL/6 mice; test: Rotarod test, Example 3.A (MSRV-Env induced EAE); type: in vivo; details: Example 3.A doses, end of study period
Experimental: 9 and 8 days before immunization. Transfer of mice, in their home cages, from the holding room to the experimental room. Mice are habituated to the experimental room for 15 min. During the training period, each mouse was placed on the rotarod at a constant speed (4 rpm) if one mouse was falling, she was back on rotarod, when mice were comfortable on the rotarod, mice were running during 120 sec. All mice were returned to their cage, the speed was increased to 13 rpm and mice were again put on the rotarod for 120 sec. All mice were returned to their cage, the speed was increased to 19 rpm and mice were again put on the rotarod for 120 sec. The experimental-room environment were kept constant between test sessions with respect to temperature, and light intensity.
1 day before each immunization, mice were transferred in their home cages, from the holding room to the experimental room. Mice were habituated to the experimental room for 15 min. Mice then received two trials at 10 increasing speed levels, ranging from 7 to 40 rpm. Individual delays before falling off the rotarod (for the two trials at each speed level) was recorded until 60 sec. Thus, training and performance on the Rotarod system were determined for each animal.
The ROTAROD test results are expressed as kinetics of the mean of individual scores for each group with SEM indicated by bars, for each test day and for each test speed within the discriminating range for neuromotor impairment in present conditions (16 to 29 rpm).
They are calculated for each individual mouse, for each test day and for each speed value, as the relative gain or loss of time on Rotarod (before falling), compared to the first test day at the same speed (D-7, before starting the disease induction in relevant groups). The value is calculated as “Time on Rotarod at dayX”−“Time at Day-7 for the same mouse at the same speed”. Figures illustrate the kinetics for the different groups on the whole study period, for representative discriminative speed values when validated to differentiate ill from healthy animals in our conditions (e.g., too high or too low speed values either made healthy ones fall immediately or ill ones capable to sustain a slow movement).
as §3, §4

O=C([O-])/C=C/C(=O)[O-].[Na+].[Na+] [Sodium Fumarate, reference compound]
EAE clinical score kinetics and endpoint [1]: did not reveal any significant clinical improvement; also recorded: bad outcome at the end of the study; also recorded: no effect

O=C(Nc1nc2ccccc2n1CCN1CCOCC1)c1cccc([N+](=O)[O-])c1 [IRAK-1/4 inhibitor I, 1-(2-(4-Morpholinyl)ethyl)-2-(3-nitrobenzoylamino)benzimidazole]
iNOS expression in presence of Env after pre-incubation with inhibitor (rat OPCs [2]): significantly decreased iNOS expression levels
iNOS expression in presence of Env after pre-incubation with inhibitor (rat OPCs [2]; listed as IRAK1/4 inhibitor I): Reduction of iNOS expression

COC(=O)[C@H](N)CCCNC(=N)N[N+](=O)[O-] [D-NAME, D-N^G-nitroarginine methyl ester]
MBP expression in Env stimulated OPCs (rescue of differentiation block) (rat OPCs [3]): not and not able to rescue myelin expression
Env dependent formation of 3-NT positive OPCs after pre-incubation (rat OPCs [4]): not affected; also recorded: could not abolish the Env dependent 3-NT induction

CC(=O)NC(C(=O)O)C(C)(C)SN=O (racemic) [SNAP, S-Nitroso-N-acetyl-DL-penicillamine]
3-NT positive OPCs, NO donor positive control (rat OPCs [4]; SNAP 100 ng/ml): nitrotyrosinylation of almost all OPCs

COC(=O)/C=C/C(=O)OC [DMF, dimethyl fumarate]
EAE clinical score kinetics and recovery [5]: equivalent recovery at the end of the study

COC(=O)[C@@H](N)CCCNC(=N)N[N+](=O)[O-] [L-NAME, L-N^G-nitroarginine methyl ester]
NO production after pre-incubation with L-NAME (rat OPCs [6]): significantly decreased
MBP expression in Env stimulated OPCs (rescue of differentiation block) (rat OPCs [3]): rescue MBP expression; also recorded: abolishment of the Env-mediated OPC differentiation block
EAE clinical score kinetics and recovery [5]: irregular recovery
EAE clinical score kinetics and recovery ([5]; listed as L-Name): lower recovery scores and kinetics than group B
Time on Rotarod at 26 rpm relative to Day -7 [7]: improved kinetics and outcome
Time on Rotarod at 29 rpm relative to Day -7 [7]: improved kinetics and outcome
Env dependent formation of 3-NT positive OPCs after pre-incubation (rat OPCs [4]): significantly decreased; also recorded: reduced to control levels

CSC(=N)N [SMT, S-methyl-isothiourea]
EAE clinical score kinetics and recovery [5]: irregular recovery; also recorded: lower recovery scores and kinetics than group B
Time on Rotarod at 23 rpm relative to Day -7 [7]: improved kinetics and outcome

From patent US10752675B2, “Compounds for treating the remyelination blockade in diseases associated with the expression of HERV-W envelope protein” (GENEURO S.A., priority 2012, dated 2020)
